Measurements reported in patent publication US8552060B2, “Methods for treatment of sexual dysfunction” (SK Biopharmaceuticals Co., Ltd., priority 2005, dated 2013).

Columns and labels:
[1] = tested on: ovariectomized estrogen treated rat; experiment: Lordotic response in the ovariectomized estrogen treated rat (female sexual behavior); type: in vivo
Method: For initial preclinical evaluation of the effects on sexual behavior, the following study was conducted to evaluate the effects of test compound on lordotic response in the ovariectomized estrogen treated rat.
Animals: Long-Evans hooded female rates (100-125 g) male Sprague-Dawley rats (150-175 g) were obtained from Charles River Breeding laboratories.
Chemicals: Progesterone (Cat. # P-0130; Lot 128H0456) and estrone (Cat # E-9750; Lot 28H0372) were purchased from Sigma Chemical Company and quinelorane Cat # Q-110; Lot PRF-694A) and bupropion (Cat # B-102; BS-11-10) were purchased from Research Biochemicals Incorporated. Test compound (Lot # D5-91B) was synthesized at SK Biopharmaceutical Center, Fairfield, N.J. Estrone and progesterone were dissolved in propylene glycol (Fisher Scientific P355-1; Lot # 992032). test compound, quinelorane and bupropion were dissolved in sterile saline (0.9% NaCl, Abbott Laboratories Lot #25-270-DK).
Protocol for ovariectomy: Female rats (108-120 g) were anesthetized with 100 mg/kg s.c. ketamine (Ketaset 100 mg/ml, Ford Dodge Laboratories, lot #440339) and 7 mg/kg s.c. xylazine (Rompun 20 mg/ml, Bayer Corporation, lot #26050E). A midline incision (1 cm) on the ventral surface was made starting approximately 0.5-1 cm from the genitalia. A second incision (1 cm) was through the linea alba connecting fascia for abdominal muscles. The body of the uterus was located near the pubic bone and retracted through the abdominal incision. The uterine horns with ovaries were retracted through the abdominal wall. Each uterine horn was ligated near the uterine body bisected and removed. The abdominal, wall was closed with 2 sutures and the skin incision was closed with either wound clips or sutures. The rats were kept warm until they recovered from the anesthesia. OVX=ovariectomized.
Accelerated light cycle (10:14): Lights were on from 1 am to 11 am. During dark phase, the room was kept dark except for lighting from red lights needed to observe the behaviors.
Behavior observation arenas: Side walls (45×60 cm) and top (60×60 cm) with hole (15×15 cm) were constructed of clear Lucite plastic and bonded together with adhesive. The base was made from stainless steel grating and was placed over bedding material. Arenas and base were washed between experiments.
Protocol for female sexual behavior: At least 2-3 hours into the dark phase of the lighting cycle, male rats are placed into the behavior arenas and allowed to acclimate for 15 minutes prior to testing. Prior to the testing of experimental animals, the males are exposed to sexually receptive, OVX rats treated with estrone 0.25 mg s.c. 48 hours prior to test and progesterone 1 mg s.c. 6 hours prior to test. When active mating occurs, the receptive females are removed. The test female (OVX treated only with estrone 0.25 mg 48 hours prior to test) is added to the arena with the activated male. The number of lordosis responses for 15 mounts is recorded (lordosis is defined as a downward arching of the back to expose genitalia).
During this first test period, only female rats with a L/M of 4/15 or lower were treated with test drug and 90 minutes later the rats were retested as previously for 15 mounts. This exclusion criterion is used to lower the variance due to rats that become overly receptive to estrone. The index of change is the change in L/M between test 2 and test 1. Statistical comparisons of the treatment groups were made using ANOVA followed by a Dunnett's test for multiple treatment group designs and a Student's t test for single control and treatment designs with the minimum level of significance set at p<0.05.

[2] = tested on: patients; conditions: Foreman 1995; cited from earlier work
[3] = tested on: rats and mice; experiment: Locomotor activity in rats and mice; type: in vivo; conditions: at higher dose
Text: Although the mechanism of action of test compound is unknown, this pharmacological profile may involve activation of central catecholaminergic pathways.

[4] = tested on: humans; experiment: Placebo controlled antidepressant trial in humans, analysis of post trial questionnaires; type: in vivo, human; conditions: mostly in males
Text: This was a large placebo controlled study where the test compound was compared with a conventional SSRI antidepressant (Paroxetine). […] This study was not designed to see or evaluate this property of the compound and so future studies directed specifically to assess this property of test compound in humans will be performed.

SMILES	Lordotic response compared to vehicle treatment ([1]; 30 mg/kg s.c.)	Change in Lordotic Response ([1]; 30 mg/kg s.c., change in L/M, * significantly different from vehicle (Student's test))	Effect on sexual response in patients [2]	Lordotic response compared to vehicle treatment ([1]; 25 μg/kg s.c.)	Change in Lordotic Response ([1]; 25 μg/kg s.c., change in L/M, * significantly different from vehicle (Student's test))	Effects on locomotor activity [3]	Dose of peak effect on interest in sex and ability to have an orgasm [4] [mg per day]	Effect on interest in sex and ability to have an orgasm (post trial questionnaires) ([4]; placebo controlled study with Paroxetine comparator)	Change in Lordotic Response ([1]; 10 mg/kg s.c., change in L/M between test 2 and test 1, retest 90 minutes after drug, OVX estrone treated female rats)	Change in Lordotic Response ([1]; 30 mg/kg s.c., change in L/M between test 2 and test 1, retest 90 minutes after drug, * significantly different from vehicle (ANOVA, Dunnett's test))	Change in Lordotic Response ([1]; 100 mg/kg s.c., change in L/M between test 2 and test 1, retest 90 minutes after drug, * significantly different from vehicle (ANOVA, Dunnett's test))	Lordotic response compared to vehicle treatment ([1]; 30 and 100 mg/kg s.c.)	Lordotic behavior in the female rat, dose relation ([1]; doses of 10, 30 and 100 mg/kg s.c.)
CC(NC(C)(C)C)C(=O)c1cccc(Cl)c1 (centres unmarked) [Bupropion, bupropion, reference compound]	significant increases in lordotic response	0.478 +/− 0.073 *	augment sexual response in patients	–	–	–	–	–	–	–	–	–	–
CCCN1CCC[C@@H]2Cc3nc(N)ncc3C[C@H]21 [Quinelorane, quinelorane, reference compound]	–	–	augment sexual response in patients	significant increases in lordotic response	0.593 +/− 0.056 *	–	–	–	–	–	–	–	–
NC(=O)OC[C@H](N)Cc1ccccc1 [test compound, O-carbamoyl-(D)-phenylalaninol]	–	–	–	–	–	stimulant-like effects on locomotor activity	400	increasing interest in sex and in ability to have an orgasm	0.338 +/− 0.049	0.476 +/− 0.049 *	0.559 +/− 0.059 *	significantly greater lordotic response than vehicle treatment	dose-related increases in lordotic behavior
